Source: ChEMBL document CHEMBL1201862, “PubChem BioAssay data set” (2004)
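Five concentrations, 48 hours, 96-well plates. GI50: concentration for 50% inhibition of growth.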 The source made the active and inactive calls. Cut-off read from the data, not from the text of the source: active = GI50 up to about 1.1 µM and inactive = higher.

Tests used:
Assay in all cases: inhibition of tumour cell growth, NCI panel, 48 h
786-0 = tested on: 786-0
A498 = tested on: A498
A549 = tested on: A549
ACHN = tested on: ACHN
BT-549 = tested on: BT-549
CAKI-1 = tested on: CAKI-1
CCRF-CEM = tested on: CCRF-CEM
COLO 205 = tested on: COLO 205
DU-145 = tested on: DU-145
EKVX = tested on: EKVX
HCT-116 = tested on: HCT-116
HCT-15 = tested on: HCT-15
HL-60 = tested on: HL-60
HOP-62 = tested on: HOP-62
HOP-92 = tested on: HOP-92
HT-29 = tested on: HT-29
Hs-578T = tested on: Hs-578T
IGROV-1 = tested on: IGROV-1
K562 = tested on: K562
KM12 = tested on: KM12
LOX IMVI = tested on: LOX IMVI
M14 = tested on: M14
MCF7 = tested on: MCF7
MDA-MB-231 = tested on: MDA-MB-231
MDA-MB-435 = tested on: MDA-MB-435
MDA-N = tested on: MDA-N
Malme-3M = tested on: Malme-3M
NCI-H226 = tested on: NCI-H226
NCI-H23 = tested on: NCI-H23
NCI-H460 = tested on: NCI-H460
NCI-H522 = tested on: NCI-H522
NCI/ADR-RES = tested on: NCI/ADR-RES
OVCAR-3 = tested on: OVCAR-3
OVCAR-4 = tested on: OVCAR-4
OVCAR-5 = tested on: OVCAR-5
OVCAR-8 = tested on: OVCAR-8
PC-3 = tested on: PC-3
RPMI-8226 = tested on: RPMI-8226
RXF 393 = tested on: RXF 393
SF-268 = tested on: SF-268
SF-295 = tested on: SF-295
SF-539 = tested on: SF-539
SK-MEL-28 = tested on: SK-MEL-28
SK-MEL-2 = tested on: SK-MEL-2
SK-MEL-5 = tested on: SK-MEL-5
SK-OV-3 = tested on: SK-OV-3
SN12C = tested on: SN12C
SNB-19 = tested on: SNB-19
SNB-75 = tested on: SNB-75
SR = tested on: SR
SW-620 = tested on: SW-620
T47D = tested on: T47D
TK-10 = tested on: TK-10
U-251 = tested on: U-251
UACC-257 = tested on: UACC-257
UACC-62 = tested on: UACC-62
UO-31 = tested on: UO-31
MOLT-4 = tested on: MOLT-4

For `CN1CCN(c2ccc([N+](=O)[O-])c3no[n+]([O-])c23)CC1`, the GI50 (786-0) was 0.0452 µM (active), the GI50 (A498) was 1.04 µM (active) and the GI50 (A549) was 0.207 µM (active). For the same compound, the GI50 (ACHN) was 0.0395 µM (active), the GI50 (BT-549) was 1.09 µM (active) and the GI50 (CAKI-1) was 0.032 µM (active). For the same compound, the GI50 (CCRF-CEM) was 0.0143 µM (active), the GI50 (COLO 205) was 0.656 µM (active) and the GI50 (DU-145) was 0.141 µM (active). For the same compound, the GI50 (EKVX) was 1.19 µM (inactive), the GI50 (HCT-116) was 0.12 µM (active) and the GI50 (HCT-15) was 0.489 µM. For the same compound, the GI50 (HL-60) was 0.0366 µM (active), the GI50 (HOP-62) was 0.0607 µM (active) and the GI50 (HOP-92) was 0.526 µM (active). The GI50 (HT-29) was 0.18 µM (active), the GI50 (Hs-578T) was 0.571 µM (active) and the GI50 (IGROV-1) was 0.0719 µM (active). The GI50 (K562) was 0.0881 µM (active), the GI50 (KM12) was 0.098 µM (active) and the GI50 (LOX IMVI) was 0.0485 µM (active). For the same compound, the GI50 (M14) was 0.153 µM (active), the GI50 (MCF7) was 0.0817 µM (active) and the GI50 (MDA-MB-231) was 1.34 µM (inactive). The GI50 (MDA-MB-435) was 1.05 µM (active), the GI50 (MDA-N) was 1.36 µM (inactive) and the GI50 (Malme-3M) was 0.16 µM (active). The GI50 (NCI-H226) was 0.604 µM (active), the GI50 (NCI-H23) was < 0.0359 µM (active) and the GI50 (NCI-H460) was 0.0334 µM (active). The GI50 (NCI-H522) was 0.0295 µM (active), the GI50 (NCI/ADR-RES) was 0.161 µM (active) and the GI50 (OVCAR-3) was 0.396 µM (active). The GI50 (OVCAR-4) was 0.689 µM (active), the GI50 (OVCAR-5) was 1.76 µM (inactive) and the GI50 (OVCAR-8) was 0.24 µM (active). For the same compound, the GI50 (PC-3) was 0.557 µM (active), the GI50 (RPMI-8226) was 0.0628 µM (active) and the GI50 (RXF 393) was 0.122 µM (active). For the same compound, the GI50 (SF-268) was 0.0375 µM (active), the GI50 (SF-295) was 0.0424 µM (active) and the GI50 (SF-539) was 0.0652 µM (active). The GI50 (SK-MEL-28) was 1.98 µM (inactive), the GI50 (SK-MEL-2) was 1.34 µM (inactive) and the GI50 (SK-MEL-5) was 0.743 µM (active). For the same compound, the GI50 (SK-OV-3) was 0.148 µM (active), the GI50 (SN12C) was 0.106 µM (active) and the GI50 (SNB-19) was 0.914 µM (active). For the same compound, the GI50 (SNB-75) was 0.0103 µM (active), the GI50 (SR) was < 0.01 µM (active) and the GI50 (SW-620) was 0.0631 µM (active). For the same compound, the GI50 (T47D) was 0.0661 µM (active), the GI50 (TK-10) was 0.792 µM (active) and the GI50 (U-251) was 0.097 µM (active). For the same compound, the GI50 (UACC-257) was 1.19 µM (inactive), the GI50 (UACC-62) was 0.769 µM (active) and the GI50 (UO-31) was 0.239 µM (active).
For `COc1cc(S(=O)(=O)Nc2nc(-c3ccc(N4C(=O)/C(=C\c5cccs5)N=C4c4ccccc4)cc3)cs2)ccc1Cl`, the GI50 (786-0) was > 100 µM (inactive), the GI50 (A498) was > 100 µM (inactive) and the GI50 (A549) was > 100 µM (inactive). For the same compound, the GI50 (ACHN) was > 100 µM (inactive), the GI50 (BT-549) was 34.5 µM (inactive) and the GI50 (CAKI-1) was > 100 µM (inactive). For the same compound, the GI50 (CCRF-CEM) was 41 µM (inactive), the GI50 (COLO 205) was > 100 µM (inactive) and the GI50 (DU-145) was > 100 µM (inactive). For the same compound, the GI50 (HCT-116) was 49.2 µM (inactive), the GI50 (HCT-15) was > 100 µM and the GI50 (HL-60) was 36.7 µM (inactive). The GI50 (HOP-62) was > 100 µM (inactive), the GI50 (HOP-92) was 28.1 µM (inactive) and the GI50 (HT-29) was > 100 µM (inactive). For the same compound, the GI50 (Hs-578T) was 24 µM (inactive), the GI50 (IGROV-1) was 42.2 µM (inactive) and the GI50 (K562) was 64.9 µM (inactive). For the same compound, the GI50 (KM12) was 94 µM (inactive), the GI50 (LOX IMVI) was 32.1 µM (inactive) and the GI50 (M14) was > 100 µM (inactive). For the same compound, the GI50 (MCF7) was 40 µM (inactive), the GI50 (MDA-MB-231) was 29.8 µM (inactive) and the GI50 (MDA-MB-435) was 55.6 µM (inactive). For the same compound, the GI50 (MDA-N) was 43.1 µM (inactive), the GI50 (MOLT-4) was 43.9 µM (inactive) and the GI50 (Malme-3M) was 23.6 µM (inactive). The GI50 (NCI-H226) was > 100 µM (inactive), the GI50 (NCI-H23) was 34.8 µM (inactive) and the GI50 (NCI-H460) was > 100 µM (inactive). The GI50 (NCI-H522) was 29.4 µM (inactive), the GI50 (NCI/ADR-RES) was > 100 µM (inactive) and the GI50 (OVCAR-3) was > 100 µM (inactive). The GI50 (OVCAR-4) was 57.3 µM (inactive), the GI50 (OVCAR-5) was > 100 µM (inactive) and the GI50 (OVCAR-8) was 46 µM (inactive). For the same compound, the GI50 (PC-3) was 66.8 µM (inactive), the GI50 (RXF 393) was 32.1 µM (inactive) and the GI50 (SF-268) was 18.7 µM (inactive). For the same compound, the GI50 (SF-295) was > 100 µM (inactive), the GI50 (SF-539) was 49.9 µM (inactive) and the GI50 (SK-MEL-28) was 71.6 µM (inactive). The GI50 (SK-MEL-2) was 29.2 µM (inactive), the GI50 (SK-MEL-5) was 43.2 µM (inactive) and the GI50 (SK-OV-3) was > 100 µM (inactive). The GI50 (SN12C) was 58.5 µM (inactive), the GI50 (SNB-19) was 66.2 µM (inactive) and the GI50 (SNB-75) was 51.4 µM (inactive). The GI50 (SR) was 39.5 µM (inactive), the GI50 (SW-620) was > 100 µM (inactive) and the GI50 (T47D) was 45.8 µM (inactive). For the same compound, the GI50 (TK-10) was > 100 µM (inactive), the GI50 (U-251) was 45.4 µM (inactive) and the GI50 (UACC-257) was 71.3 µM (inactive). The GI50 (UACC-62) was 25.3 µM (inactive) and the GI50 (UO-31) was > 100 µM (inactive).
For `Nc1nc(Nc2ccc(Cl)cc2)sc1C(=O)c1cccs1`, the GI50 (786-0) was 11.8 µM (inactive), the GI50 (A498) was 19.1 µM (inactive) and the GI50 (A549) was 27.9 µM (inactive). For the same compound, the GI50 (ACHN) was 36.3 µM (inactive), the GI50 (BT-549) was 40.5 µM (inactive) and the GI50 (CCRF-CEM) was 53.7 µM (inactive). The GI50 (COLO 205) was > 100 µM (inactive), the GI50 (DU-145) was 78.9 µM (inactive) and the GI50 (EKVX) was 20 µM (inactive). The GI50 (HCT-116) was 14.7 µM (inactive), the GI50 (HCT-15) was > 100 µM and the GI50 (HL-60) was > 100 µM (inactive). For the same compound, the GI50 (HOP-62) was 25.6 µM (inactive), the GI50 (HOP-92) was 44.5 µM (inactive) and the GI50 (HT-29) was 6.18 µM (inactive). The GI50 (Hs-578T) was 15.2 µM (inactive), the GI50 (IGROV-1) was 39.6 µM (inactive) and the GI50 (KM12) was > 100 µM (inactive). For the same compound, the GI50 (LOX IMVI) was > 100 µM (inactive), the GI50 (M14) was > 100 µM (inactive) and the GI50 (MCF7) was 33.4 µM (inactive). The GI50 (MDA-MB-231) was 40 µM (inactive), the GI50 (MDA-MB-435) was > 100 µM (inactive) and the GI50 (MDA-N) was > 100 µM (inactive). For the same compound, the GI50 (MOLT-4) was > 100 µM (inactive), the GI50 (Malme-3M) was 99.3 µM (inactive) and the GI50 (NCI-H226) was 24.7 µM (inactive). The GI50 (NCI-H23) was 29.2 µM (inactive), the GI50 (NCI-H460) was 17.9 µM (inactive) and the GI50 (NCI/ADR-RES) was 50.6 µM (inactive). For the same compound, the GI50 (OVCAR-3) was 5.57 µM (inactive), the GI50 (OVCAR-4) was 25.9 µM (inactive) and the GI50 (OVCAR-5) was > 100 µM (inactive). For the same compound, the GI50 (PC-3) was > 100 µM (inactive), the GI50 (RPMI-8226) was > 100 µM (inactive) and the GI50 (RXF 393) was 17.2 µM (inactive). The GI50 (SF-268) was 28.7 µM (inactive), the GI50 (SF-539) was 21.6 µM (inactive) and the GI50 (SK-MEL-28) was > 100 µM (inactive). For the same compound, the GI50 (SK-MEL-2) was 98.9 µM (inactive), the GI50 (SK-MEL-5) was 38.2 µM (inactive) and the GI50 (SK-OV-3) was 22.9 µM (inactive). For the same compound, the GI50 (SN12C) was 21 µM (inactive), the GI50 (SNB-19) was 19.9 µM (inactive) and the GI50 (SR) was 2.4 µM (inactive). For the same compound, the GI50 (SW-620) was 59 µM (inactive), the GI50 (T47D) was 77.8 µM (inactive) and the GI50 (TK-10) was 13.1 µM (inactive). The GI50 (U-251) was 14.7 µM (inactive), the GI50 (UACC-257) was > 100 µM (inactive) and the GI50 (UACC-62) was > 100 µM (inactive). For the same compound, the GI50 (UO-31) was 17 µM (inactive).
